Where two headings read alike, the source gives them in different places.
How the values were obtained:
[1] = molecular target: T1, human recombinant 5-HT transporter (SERT) (Homo sapiens, UniProt P31645); assay: biochemical; format: binding; conditions: read-out: SERT % inhibition
T1 construct: host or cells: CHO-S / SERT (h), cell membrane homogenates

[2] = molecular target: T2, human full-length recombinant serotonin 5-HT2A receptors (Homo sapiens, UniProt P28223); assay: biochemical; format: binding; conditions: for inhibition at 0.1 µM: read-out: 5-HT2A % inhibition
T2 construct: human full-length recombinant serotonin 5-HT2A receptors expressed in HEK-293E cells
T2 sequence (P28223 whole entry): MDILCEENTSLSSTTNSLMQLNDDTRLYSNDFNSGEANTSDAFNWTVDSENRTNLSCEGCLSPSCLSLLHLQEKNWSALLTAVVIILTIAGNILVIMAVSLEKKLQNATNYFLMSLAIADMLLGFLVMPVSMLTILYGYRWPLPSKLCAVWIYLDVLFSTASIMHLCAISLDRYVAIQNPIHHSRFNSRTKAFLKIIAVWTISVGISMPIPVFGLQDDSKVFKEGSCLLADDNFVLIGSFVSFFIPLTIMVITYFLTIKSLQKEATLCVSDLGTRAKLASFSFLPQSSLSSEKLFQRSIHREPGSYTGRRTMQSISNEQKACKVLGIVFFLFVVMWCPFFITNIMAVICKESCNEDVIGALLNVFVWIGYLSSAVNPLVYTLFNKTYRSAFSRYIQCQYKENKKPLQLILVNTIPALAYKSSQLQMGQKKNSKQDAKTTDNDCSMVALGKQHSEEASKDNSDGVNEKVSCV

[3] = molecular target: human recombinant dopamine D1 receptor (Homo sapiens, UniProt P21728); assay: Dopamine D1 receptor binding, [3H]SCH 23390 displacement; conditions: for inhibition at 0.1 µM: read-out: D1 % inhibition
Sequence of human recombinant dopamine D1 receptor (P21728 whole entry): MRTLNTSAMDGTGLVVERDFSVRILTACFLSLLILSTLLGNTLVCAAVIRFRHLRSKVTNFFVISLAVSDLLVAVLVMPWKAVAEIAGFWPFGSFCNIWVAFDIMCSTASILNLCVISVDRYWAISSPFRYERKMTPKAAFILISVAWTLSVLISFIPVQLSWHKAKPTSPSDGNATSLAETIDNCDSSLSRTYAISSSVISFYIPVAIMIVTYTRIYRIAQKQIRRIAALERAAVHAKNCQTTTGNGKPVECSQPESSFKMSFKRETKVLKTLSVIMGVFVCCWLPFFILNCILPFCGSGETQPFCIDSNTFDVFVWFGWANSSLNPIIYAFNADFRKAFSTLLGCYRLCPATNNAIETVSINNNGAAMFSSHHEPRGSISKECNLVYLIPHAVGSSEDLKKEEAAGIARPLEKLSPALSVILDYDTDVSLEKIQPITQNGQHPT

[4] = molecular target: human recombinant dopamine D2 short receptor (Homo sapiens, UniProt P14416); assay: Dopamine D2 receptor binding, [3H]7-OH-DPAT displacement; conditions: for inhibition at 0.1 µM: read-out: D2 % inhibition
Sequence of human recombinant dopamine D2 short receptor (P14416 1-414 isoform P14416-2): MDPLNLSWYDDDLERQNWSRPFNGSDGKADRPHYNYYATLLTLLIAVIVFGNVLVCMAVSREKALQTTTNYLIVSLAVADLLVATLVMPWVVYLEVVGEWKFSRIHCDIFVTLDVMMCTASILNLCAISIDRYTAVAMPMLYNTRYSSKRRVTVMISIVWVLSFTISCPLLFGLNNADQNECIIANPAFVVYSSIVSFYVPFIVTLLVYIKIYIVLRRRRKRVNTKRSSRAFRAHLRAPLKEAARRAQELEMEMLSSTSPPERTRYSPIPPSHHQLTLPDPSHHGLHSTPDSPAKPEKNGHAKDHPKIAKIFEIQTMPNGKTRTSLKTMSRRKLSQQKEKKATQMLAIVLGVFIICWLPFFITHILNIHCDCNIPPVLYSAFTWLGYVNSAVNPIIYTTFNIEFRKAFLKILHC

[5] = inhibition at 100 nM, NI = no inhibition

T1 sequence (P31645 whole entry): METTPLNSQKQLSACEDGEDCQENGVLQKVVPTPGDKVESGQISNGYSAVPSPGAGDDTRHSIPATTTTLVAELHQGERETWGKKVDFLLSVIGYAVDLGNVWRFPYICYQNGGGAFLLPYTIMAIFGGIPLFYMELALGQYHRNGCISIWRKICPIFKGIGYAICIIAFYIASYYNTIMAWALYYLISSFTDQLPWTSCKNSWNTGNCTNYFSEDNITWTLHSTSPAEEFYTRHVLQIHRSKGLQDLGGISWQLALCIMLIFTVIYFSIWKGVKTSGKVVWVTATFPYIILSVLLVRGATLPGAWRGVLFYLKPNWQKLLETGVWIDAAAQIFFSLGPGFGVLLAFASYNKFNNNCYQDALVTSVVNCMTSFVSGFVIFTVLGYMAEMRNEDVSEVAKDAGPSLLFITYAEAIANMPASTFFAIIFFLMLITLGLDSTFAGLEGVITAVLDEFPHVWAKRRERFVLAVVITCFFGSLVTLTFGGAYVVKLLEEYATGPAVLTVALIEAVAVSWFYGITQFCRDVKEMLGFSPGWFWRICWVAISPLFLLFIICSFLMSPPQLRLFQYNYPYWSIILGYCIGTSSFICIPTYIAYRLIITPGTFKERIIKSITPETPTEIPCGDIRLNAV

With `O=C1CN2c3c(cccc3[C@@H]3CN(CCCS(=O)(=O)c4ccc(F)cc4)CC[C@@H]32)N1` [compound 46, (6bR,10aS)-8-(3-((4-Fluorophenyl)sulfonyl)propyl)-6b,7,8,9,10,10a-hexahydro-1H-pyrido[3′,4′:4,5]-pyrrolo-[1,2,3-de]quinoxalin-2(3H)-one] the inhibition at 0.2 µM [1] was under 0%, the inhibition at 0.1 µM [2] was 33% and the inhibition at 0.1 µM [3, 5] was under 0%. For the same molecule, the inhibition at 0.1 µM [4, 5] was under 0%.

`Cc1cc(F)cc(C)c1OCCCN1CC[C@H]2[C@@H](C1)c1cccc3c1N2CC(=O)N3` [compound 43, (6bR,10aS)-8-(3-(4-Fluoro-2,6-dimethylphenoxy)propyl)-6b,7,8,9,10,10a-hexahydro-1H-pyrido[3′,4′:4,5]-pyrrolo[1,2,3-de]quinoxalin-2(3H)-one] was tested, and the inhibition at 0.2 µM [1] was 34%, the inhibition at 0.1 µM [2] was 40% and the inhibition at 0.1 µM [3] was under 0%. For the same molecule, the inhibition at 0.1 µM [4] was under 0%.

With `O=C1CN2c3c(cccc3[C@@H]3CN(CCCOc4ccc(O)cc4)CC[C@@H]32)N1` [compound 33, (6bR,10aS)-8-(3-(4-Hydroxyphenoxy)propyl)-6b,7,8,9,10,10a-hexahydro-1H-pyrido[3′,4′:4,5]pyrrolo-[1,2,3-de]quinoxalin-2(3H)-one] the inhibition at 0.1 µM [1] was 11%, the inhibition at 0.1 µM [2] was 77% and the inhibition at 0.1 µM [3, 5] was under 0%. It also gave an inhibition at 0.1 µM [4, 5] of 41%.

With `O=C1CN2c3c(cccc3[C@@H]3CN(CCCOc4ccc(Br)cc4)CC[C@@H]32)N1` [compound 30, (6bR,10aS)-8-(3-(4-Bromophenoxy)propyl)-6b,7,8,9,10,10a-hexahydro-1H-pyrido[3′,4′:4,5]pyrrolo-[1,2,3-de]quinoxalin-2(3H)-one] the inhibition at 0.1 µM [1] was 44%, the inhibition at 0.1 µM [2] was 70% and the inhibition at 0.1 µM [3, 5] was under 0%. It also gave an inhibition at 0.1 µM [4, 5] of 8.4%.

For `O=C1CN2c3c(cccc3[C@H]3CN(CCCOc4ccc(F)cc4)CC[C@H]32)N1` [compound 54, (6bS,10aR)-8-(3-(4-Fluorophenoxy)propyl)-6b,7,8,9,10,10a-hexahydro-1H-pyrido[3′,4′:4,5]pyrrolo[1,2,3-de]quinoxalin-2(3H)-one], the inhibition at 0.1 µM [1] was under 0%, the “D1(Ki or (% Inhibition)): % inhibition” value [3] was 75 (50%) and the inhibition at 0.1 µM [3] was 50%.

In the case of `O=C1CN2c3c(cccc3[C@@H]3CN(CCCCOc4ccc(F)cc4)CC[C@@H]32)N1` [compound 50, (6bR,10aS)-8-(4-(4-Fluorophenoxy)butyl)-6b,7,8,9,10,10a-hexahydro-1H-pyrido[3′,4′:4,5]pyrrolo[1,2,3-de]quinoxalin-2(3H)-one], the inhibition at 0.1 µM [1] is reported as under 0%, the inhibition at 0.1 µM [2] is reported as 37% and the inhibition at 0.1 µM [3, 5] is reported as 5.4%. The inhibition at 0.1 µM [4, 5] was 27%.

With `O=C1CN2c3c(cccc3[C@@H]3CN(CCCc4noc5cc(F)ccc45)CC[C@@H]32)N1` [compound 26, (6bR,10aS)-8-(3-(6-Fluorobenzo[d]isoxazol-3-yl)propyl)-6b,7,8,9,10,10a-hexahydro-1H-pyrido[3′,4′:4,5]-pyrrolo[1,2,3-de]quinoxalin-2(3H)-one] the Ki [2] was 3.1 nM, the Ki [3] was 13 nM and the Ki [4] was 84 nM. The “fold weaker affinity to dopamine D2 receptors” value [4] was “over 5 fold”.

`O=C1CN2c3c(cccc3[C@@H]3CN(CCCOc4ccccc4F)CC[C@@H]32)N1` [compound 36, (6bR,10aS)-8-(3-(2-Fluorophenoxy)propyl)-6b,7,8,9,10,10a-hexahydro-1H-pyrido[3′,4′:4,5]pyrrolo[1,2,3-de]quinoxalin-2(3H)-one] gave an inhibition at 0.1 µM [1] of 5.1%, an inhibition at 0.1 µM [2] of 87% and an inhibition at 0.1 µM [3, 5] of 18%. The inhibition at 0.1 µM [4, 5] was 28%.

Work on `COc1ccc(OCCCN2CC[C@H]3[C@@H](C2)c2cccc4c2N3CC(=O)N4)cc1` [compound 34, (6bR,10aS)-8-(3-(4-Methoxyphenoxy)propyl)-6b,7,8,9,10,10a-hexahydro-1H-pyrido[3′,4′:4,5]pyrrolo-[1,2,3-de]quinoxalin-2(3H)-one] yielded an inhibition at 0.1 µM [1] of 10%, an inhibition at 0.1 µM [2] of under 0% and an inhibition at 0.1 µM [3, 5] of under 0%.

`NC(=O)c1cc(F)ccc1OCCCN1CC[C@H]2[C@@H](C1)c1cccc3c1N2CC(=O)N3` [compound 38, 5-Fluoro-2-(3-((6bR,10aS)-2-oxo-2,3,6b,9,10,10a-hexahydro-1H-pyrido[3′,4′:4,5]pyrrolo[1,2,3-de]quinoxalin-8(7H)-yl)propoxy)benzamide] gave an inhibition at 0.1 µM [1] of 9.6%, an inhibition at 0.1 µM [2] of 14% and an inhibition at 0.1 µM [3, 5] of under 0%. For the same molecule, the inhibition at 0.1 µM [4, 5] was under 0%.

For `O=C1CN2c3c(cccc3[C@@H]3CN(CCOc4ccc(F)cc4)CC[C@@H]32)N1` [compound 49, (6bR,10aS)-8-(2-(4-Fluorophenoxy)ethyl)-6b,7,8,9,10,10a-hexahydro-1H-pyrido[3′,4′:4,5]pyrrolo[1,2,3-de]quinoxalin-2(3H)-one], the inhibition at 0.1 µM [1] was under 0%, the inhibition at 0.1 µM [2] was 48% and the inhibition at 0.1 µM [3, 5] was 10%. The inhibition at 0.1 µM [4, 5] was 24%.

`O=C1CN2c3c(cccc3[C@@H]3CN(CCCOc4ccc(OCc5ccccc5)cc4)CC[C@@H]32)N1` [compound 35, (6bR,10aS)-8-(3-(4-(Benzyloxy)phenoxy)propyl)-6b,7,8,9,10,10a-hexahydro-1H-pyrido[3′,4′:4,5]-pyrrolo[1,2,3-de]quinoxalin-2(3H)-one] was tested, and the inhibition at 0.1 µM [1] was 68%, the inhibition at 0.1 µM [2] was 76% and the inhibition at 0.1 µM [3, 5] was 4.6%. It also gave an inhibition at 0.1 µM [4, 5] of 23%.

Molecule `O=C1CN2c3c(cccc3[C@@H]3CN(CCCOc4ccc5c(c4)OCO5)CC[C@@H]32)N1` [compound 28, (6bR,10aS)-8-(3-(Benzo[d][1,3]dioxol-5-yloxy)propyl)-6b,7,8,9,10,10a-hexahydro-1H-pyrido[3′,4′:4,5]-pyrrolo[1,2,3-de]quinoxalin-2(3H)-one] has an inhibition at 0.1 µM [2] of under 0% and an inhibition at 0.1 µM [3, 5] of under 0%.

`CC1C(=O)Nc2cccc3c2N1[C@H]1CCN(CCCOc2ccc(F)cc2)C[C@@H]31` (stereo partly drawn) [compound 51, (6bR,10aS)-8-(3-(4-Fluorophenoxy)propyl)-1-methyl-6b,7,8,9,10,10a-hexahydro-1H-pyrido[3′,4′:4,5]-pyrrolo[1,2,3-de]quinoxalin-2(3H)-one] gave an inhibition at 0.1 µM [1] of under 0%, an inhibition at 0.1 µM [2] of 88% and an inhibition at 0.1 µM [3, 5] of 26%. It also gave an inhibition at 0.1 µM [4, 5] of 49%.

Molecule `CCCCN1CC[C@H]2[C@@H](C1)c1cccc3c1N2CC(=O)N3` [compound 21, (6bR,10aS)-8-Butyl-6b,7,8,9,10,10a-hexahydro-1H-pyrido[3′,4′:4,5]pyrrolo[1,2,3-de]quinoxalin-2(3H)-one] has an inhibition at 0.2 µM [1] of under 0%, an inhibition at 0.1 µM [2] of under 0% and an inhibition at 0.1 µM [3, 5] of under 0%. It also gave an inhibition at 0.1 µM [4, 5] of 15%.

`CN(CCCN1CC[C@H]2[C@@H](C1)c1cccc3c1N2CC(=O)N3)c1ccc(F)cc1` [compound 48, (6bR,10aS)-8-(3-((4-Fluorophenyl)(methyl)amino)propyl)-6b,7,8,9,10,10a-hexahydro-1H-pyrido[3′,4′:4,5]pyrrolo[1,2,3-de]quinoxalin-2(3H)-one] showed an inhibition at 0.2 µM [1] of 53%, an inhibition at 0.1 µM [2] of 76% and an inhibition at 0.1 µM [3, 5] of 21%. The inhibition at 0.1 µM [4, 5] was 14%.

With `O=C1CN2c3c(cccc3[C@@H]3CN(CCCOc4ccc(F)cc4)CC[C@H]32)N1` (racemic) [compound 20, (±)-(trans)-8-(3-(4-Fluorophenoxy)propyl)-6b,7,8,9,10,10a-hexahydro-1H-pyrido[3′,4′:4,5]pyrrolo[1,2,3-de]quinoxalin-2(3H)-one] the inhibition at 0.1 µM [1] was under 0%, the “D1(Ki or (% Inhibition)): % inhibition” value [3] was 5.6 (79%) and the inhibition at 0.1 µM [3] was 79%.
